Measurements: patent publication EP0888322B1, “ELECTROPHILIC KETONES FOR THE TREATMENT OF HERPESVIRUS INFECTIONS” (G.D. SEARLE & CO., priority 1996, dated 1997)

What was measured:
[1] = target: T1, Bovine pancreas α-chymotrypsin (Bos taurus, UniProt P00766, DEL14-15/DEL147-148); test: Chymotrypsin assay; format: biochemical; conditions: read-out: Chymotrypsin % @ Conc.
T1 construct: Bovine pancreas α-chymotrypsin (type II, Sigma); purchased Sigma type II; host or cells: bovine pancreas
Description: The chymotrypsin assay was modified from the method of Delmar et al [Anal. Biochem., 99, 316-320 (1979)]. Bovine pancreas α-chymotrypsin (type II, Sigma) was dissolved in 0.001 N HCl at 1 mg/ml and further diluted 1/600 in assay buffer (0.1 M Tris, pH 7.8, containing 0.1 M CaCl2) before use. 20 µl of test compound in DMSO (or DMSO alone), 100 µl of assay buffer and 30 µl of enzyme were added to 96 well plates, mixed and pre-incubated for 30 minutes at ambient temperature. Reaction was initiated by addition of 50 µl of 0.2 mM N-succinyl-Ala-Ala-Pro-Phe-p-nitroanilide (Sigma; 2 mM in DMSO diluted 1/10 in assay buffer before use). The increase in absorbance at 405 nm was monitored for 10 minutes with a Biotek EL340 plate reader.

[2] = target: T2, Human leukocyte elastase (HLE) (Homo sapiens, UniProt P08246); test: Human leukocyte elastase assay; format: biochemical; conditions: read-out: HLE % @ Conc.
T2 construct: gift of R. Senior, Washington University
T2 sequence (P08246 30-267): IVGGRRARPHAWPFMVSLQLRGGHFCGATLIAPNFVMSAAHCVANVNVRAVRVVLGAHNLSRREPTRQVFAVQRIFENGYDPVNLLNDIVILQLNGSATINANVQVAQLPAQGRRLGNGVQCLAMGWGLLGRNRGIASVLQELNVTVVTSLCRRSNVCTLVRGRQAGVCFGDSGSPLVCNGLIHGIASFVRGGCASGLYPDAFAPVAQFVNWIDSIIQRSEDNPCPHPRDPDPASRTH
Description: Human leukocyte elastase (HLE) (gift of R. Senior, Washington University) was dissolved in saline at 1 mg/ml and further diluted 1/20 in assay buffer (0.2 M Tris, pH 8.0) before use. 10 µl of test compound in DMSO (or DMSO alone), 100 µl of assay buffer and 50 µl of enzyme were added to 96 well plates, mixed and pre-incubated for 30 minutes at ambient temperature. Reaction was initiated by addition of 40 µl of 2.5 mM methoxysuccinyl-Ala-Ala-Pro-Val-p-nitroanilide (Sigma; 25 mM in DMSO diluted 1/10 in assay buffer before use). The increase in absorbance at 405 nm was monitored for 10 minutes with a Biotek EL340 plate reader.

in vitro [3] = format: cell-based; conditions: human
Description: (§1) These complimentary assays tested the ability of a compound to inhibit the production of new virus and the toxicity of the compound to the host cells. It was important that both assays be performed simultaneously in order to compare the results directly since, toxicity may indirectly reduce viral yield.
(§2) Viral yield was estimated by measuring the amount of a viral antigen produced 4 days post infection with a monoclonal antibody to an abundant "immediate early" viral protein. An enzyme-linked (horseradish peroxidase) secondary antibody specific to the primary (mouse) antibody was used to measure the amount of viral antigen. Test compounds were diluted to 2-times the desired final concentration in DMEM + 5% FBS. One hundred microliters of this solution was placed in each well of a 96-well plate. This was performed once for the antiviral 96-well plate and again for a cytotoxicity plate. Two controls were also included for both plates; a no drug control and a no virus control. Ganciclovir was routinely tested in antiviral and cytotoxicity plates as a reference standard because it has known antiviral activity for HCMV. All cells were prepared by harvesting human foreskin fibroblasts, with trypsin and re-suspending at a concentration of 5 X 10^5 cells per ml in DMEM. Infected cells were prepared by infecting these with HCMV (strain AD169) at a multiplicity of infection = 0.2. One hundred microliters of uninfected cells (5 x 10^4 cells) were added to the appropriate wells of the cytotoxicity plate. In a similar manner 100 µl of infected cells (5 x 10^4 cells) were added to the appropriate wells of the antiviral plate. Additionally, uninfected cells not treated with test compound were included as controls on the antiviral plate. Plates were incubated for 96 hours at 37°C in 5% CO2 atmosphere and processed to measure the amount of viral antigen and toxicity.
(§3) In this assay, HCMV replication was monitored by the production of E. coli beta-galactosidase by the engineered virus RC256 [Spaete and Mocarski, Proc.Nat.Acad.Sci., 84, 7213 (1987)]. One antiviral assay and one cytotoxicity assay were done for each compound. Dilutions of test compounds and infection of cells in a 96-well plate was essentially as described above for the HCMV ELISA except for the following. Human foreskin fibroblasts at 3.5 x 10^5 cells per milliliter were infected in solution with RC256 at 0.05 pfu per cell. Compounds and cells were incubated 3 days and processed at […]. For the beta galactosidase detection, the supernatant was aspirated from the antiviral assay plates and 50 µl Reporter Lysis Buffer (Promega, diluted to 1X with water) was added per well. The plates were incubated at room temperature at least 30 minutes and plates were frozen at -20 °C at this point for later processing. 50 µl of 2X assay buffer [120 mM Na2HPO4, 80 mM NaH2PO4, 2 mM MgCl2, 100 mM 2-mercaptoethanol, 4.4 mM ONPG (Sigma)] was added per well and incubated at room temperature 30 to 45 minutes. The reaction was stopped with 100 µl 1M CAPS buffer, pH = 11.0, per well and the optical density was read at 410 nanometers. Ganciclovir was used as a positive control and the EC50 was determined as described above for the HCMV ELISA. Results (EC50/TD50) are included in Table 1.

HCMV = HCMV antiviral assay, format (RC256 or ELISA) not given; format: cell-based; conditions: Human betaherpesvirus 5, read-out: Antiviral Activity EC50
Description: as §1
Viral yield was estimated by measuring the amount of a viral antigen produced 4 days post infection with a monoclonal antibody to an abundant "immediate early" viral protein. An enzyme-linked (horseradish peroxidase) secondary antibody specific to the primary (mouse) antibody was used to measure the amount of viral antigen. Test compounds were diluted to 2-times the desired final concentration in DMEM + 5% FBS. One hundred microliters of this solution was placed in each well of a 96-well plate. This was performed once for the antiviral 96-well plate and again for a cytotoxicity plate. […]
(§4) The following was performed on the antiviral plate only. […] The reaction was stopped by adding 100 µL of phosphoric acid and the OD at 450 nm recorded. […] Antiviral activity was calculated by comparing the amount of viral antigen produced in drug treated wells with that produced in wells absent of drug. […]
In this assay, HCMV replication was monitored by the production of E. coli beta-galactosidase by the engineered virus RC256 [Spaete and Mocarski, Proc.Nat.Acad.Sci., 84, 7213 (1987)]. […]

[4] = target: HCMV protease (Assemblin) (Human cytomegalovirus, UniProt P16753); test: Enzymatic assay for HCMV protease (Assemblin) inhibitors, chromogenic pNA substrate; format: biochemical
Sequence of HCMV protease (Assemblin) (P16753 1-256): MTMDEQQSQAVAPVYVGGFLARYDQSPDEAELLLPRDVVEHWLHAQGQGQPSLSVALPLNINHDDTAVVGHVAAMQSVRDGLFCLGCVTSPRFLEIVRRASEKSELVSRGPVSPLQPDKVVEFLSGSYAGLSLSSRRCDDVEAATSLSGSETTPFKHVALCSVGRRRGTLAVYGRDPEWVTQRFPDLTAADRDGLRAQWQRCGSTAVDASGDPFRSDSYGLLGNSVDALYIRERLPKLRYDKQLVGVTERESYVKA
Description: Assemblin protease activity was determined using a chromogenic para-nitroanilide (pNA) substrate based on the hCMV maturation cleavage site, succinyl-AGVVNA-paranitroanilide. […] Potential protease inhibitors were dissolved in DMSO and 10 µL were added to the wells of a 96-well plate (Dynatech, Immulon 1). Enzyme was diluted to 4.8 µg/mL in assay buffer (10 mM sodium phosphate, pH 7.4, 150 mM sodium acetate, 0.1% CHAPS, 20% glycerol) and 100 µL were added to each well. Following a 30 minute incubation at room temperature, 50 µL substrate (1 part 20 mM succinyl-AGVVNA-paranitroanilide (SEQID:1) in DMSO plus 9 parts assay buffer) were added, and periodic readings taken in a microplate reader at 405 nm relative to 650 nm. Activities were expressed as milliabsorbance unit (mAU) change per minute. Inhibitor potency was determined by comparison with incubations lacking inhibitor, which under these conditions gave an increase of 0.5-1 mAU/min. No increase was seen when enzyme was omitted. Results [IC50 (µM)] are included in Table 1.
The construction also encoded six additional histidine residues at the amino terminus of the protease. These additional histidine residues provided an affinity ligand by which it was purified using nickel-nitriloacetic acid-agarose (Qiagen).
The purified protease was stored as a 1-3 mg/ml stock solution in 20 mM HEPES buffer, pH 7.4; containing 20% (v/v) glycerol. This stock was diluted with assay buffer to 4.8 µg/ml. A 100 µL aliquot of this solution was used in the enzyme reaction.
A specific substrate was synthesized based on the cleavage specificity of HCMV protease at the "maturation site" of the assembly protein (F. Liu and B. Roizman, J. Virol., 65, 5149 (1991), and A. Welch, et al, J. Virol., 65, 4091 (1991)). The assembly protein maturation site has the sequence ...AGVVNA*SCRLATA...; the substrate used was succinyl-[…] (SEQID:1) which was prepared by standard peptide synthetic methods such as that described in Bodansky and Bodansky, "The Practice of Peptide Synthesis" (1984), and was stored as a stock solution at 20 mM in dimethyl sulfoxide. This was diluted 10-fold with assay buffer to give a concentration of 2 mM just before use. An aliquot of 50 µL was used in the reaction
An assay Buffer (10 mM sodium phosphate buffer, pH 7.4; 150 mM sodium acetate; 0.1% CHAPS; and 20% (v/v) glycerol) was used to dilute stock solutions of enzyme and substrate.

RC256 = test: Recombinant human cytomegalovirus antiviral assay (RC256, beta-galactosidase); format: cell-based, HCMV; conditions: Human betaherpesvirus 5, read-out: Antiviral Activity EC50
Description: as §1, §3

HCMV (strain AD169) = test: Antiviral assay, ELISA for HCMV antigens; format: cell-based; conditions: Human betaherpesvirus 5, AD169, 96 hours
Description: as §1
Viral yield was estimated by measuring the amount of a viral antigen produced 4 days post infection with a monoclonal antibody to an abundant "immediate early" viral protein. An enzyme-linked (horseradish peroxidase) secondary antibody specific to the primary (mouse) antibody was used to measure the amount of viral antigen. Test compounds were diluted to 2-times the desired final concentration in DMEM + 5% FBS. One hundred microliters of this solution was placed in each well of a 96-well plate. This was performed once for the antiviral 96-well plate and again for a cytotoxicity plate. Two controls were also included for both plates; a no drug control and a no virus control. […]
as §4

in vitro [5] = format: cell-based; conditions: human, foreskin fibroblasts
Description: as §1
as §2, with “One hundred microliters of uninfected cells (5 x 10^4 cells) were added to the appropriate wells of the cytotoxicity plate. In a similar manner 100 µl of infected cells (5 x 10^4 cells) were added to the appropriate wells of the antiviral plate. Additionally, uninfected cells not treated with test compound were included as controls on the antiviral plate. Plates were incubated for 96 hours at 37°C in 5% CO2 atmosphere and processed to measure the amount of viral antigen and toxicity.” left out

[6] = read-out: Assemblin Protease % @ Conc.

O=C(Nc1ccccc1C(=O)C(F)(F)F)OCc1ccccc1 [Example 6, phenylmethyl N-[2-(2,2,2-trifluoro-1-oxoethyl)phenyl]carbamate]
inhibition at 100 µM [1]: 21%

O=C(Nc1ccc(I)cc1C(=O)C(F)(F)F)c1ccco1 [Example 13, N-[4-iodo-2-(2,2,2-trifluoro-1-oxoethyl)phenyl]furan-2-carboxamide]
inhibition at 33 µM ([1]; @ 33 µM): 39% | inhibition at 24 µM ([2]; @ 24 µM): 50% | CC50 (in vitro [3]; human foreskin fibroblasts): > 100 µM | EC50 (HCMV): 28 µM

COc1ccccc1C(=O)Nc1ccccc1C(=O)C(F)(F)C(=O)NC(C)C [Example 17, N-[2-(3-(2-propylamino)-3-oxo-2,2-difluoro-1-oxopropyl)phenyl]2-methoxyphenylcarboxamide]
inhibition at 300 µM [1]: 0%

COc1ccccc1C(=O)Nc1ccccc1C(=O)C(F)(F)F [Example 12, N-[2-(2,2,2-trifluoro-1-oxoethyl)phenyl]2-methoxybenzamide]
inhibition at 33 µM [4, 6]: 14%

O=C(Nc1ccccc1C(=O)C(F)(F)F)c1ccccn1 [Example 11, N-[2-(2,2,2-trifluoro-1-oxoethyl)phenyl]pyridine-2-carboxamide]
inhibition at 33 µM [4, 6]: 40%

O=C(Nc1ccccc1C(=O)C(F)(F)F)c1ccco1 [Example 1, N-[2-(2,2,2-trifluoro-1-oxoethyl)phenyl]furan-2-carboxamide]
inhibition at 300 µM ([2]; @ 300 µM): 25% | CC50 (in vitro [3]; foreskin fibroblasts): > 100 µM | EC50 (RC256): 45 µM

O=C(CCc1ccccc1)Nc1cc([N+](=O)[O-])ccc1C(=O)C(F)(F)F [Example 7, N-[5-nitro-2-[2,2,2-trifluoro-1-oxoethyl)phenyl]benzenepropanamide]
inhibition at 100 µM [1]: 27% | EC50 (HCMV (strain AD169)): 16 µM | inhibition at 33 µM [4, 6]: 84% | CC50 at 96 h (in vitro [5]): > 100 µM

O=C(CCc1ccccc1)Nc1ccccc1C(=O)C(F)(F)F [Example 4, N-[2-(2,2,2-trifluoro-1-oxoethyl)phenyl]benzenepropanamide]
inhibition at 100 µM [1]: 11%

O=C(Nc1ccccc1C(=O)C(F)(F)F)c1cc2ccccc2s1 [Example 9, N-[2-(2,2,2-trifluoro-1-oxoethyl)phenyl]-1-benzothiophene-2-carboxamide]
inhibition at 100 µM [1]: 48% | CC50 (in vitro [3]; foreskin fibroblasts): > 100 µM | EC50 (RC256): 30 µM

O=C(Nc1ccccc1C(=O)C(F)(F)F)C(F)(F)F [Example 10, α,α,α-trifluoro-N-[2-(2,2,2-trifluoro-1-oxoethyl)phenyl]acetamide]
inhibition at 100 µM [1]: 49% | EC50 (HCMV (strain AD169)): > 100 µM | inhibition at 10 µM ([4]; @ 10 µM, read-out: Assemblin Protease % @ Conc.): 39% | CC50 at 96 h (in vitro [5]): > 100 µM

O=C(Nc1ccccc1C(=O)C(F)(F)F)c1cnccn1 [Example 5, N-[2-(2,2,2-trifluoro-1-oxoethyl)phenyl]pyrazine-2-carboxamide]
inhibition at 300 µM [1]: 0% | CC50 (in vitro [3]; foreskin fibroblasts): > 100 µM | EC50 (RC256): 55 µM

O=C(Nc1ccc(F)cc1C(=O)C(F)(F)F)c1ccco1 [Example 8, N-[4-fluoro-2-(2,2,2-trifluoro-1-oxoethyl)phenyl] furan-2-carboxamide]
inhibition at 33 µM [4, 6]: 18%

O=C(CCc1ccccc1)Nc1cc(F)ccc1C(=O)C(F)(F)F [Example 2, N-[5-fluoro-2-(2,2,2-trifluoro-1-oxoethyl)phenyl]benzenepropanamide]
inhibition at 100 µM [1]: 48% | inhibition at 100 µM ([2]; @ 100 µM): 26% | CC50 (in vitro [3]; foreskin fibroblasts): > 100 µM | EC50 (RC256): 57 µM

N-[2,2,2-trifluoro-1-oxoethyl)phenyl]indolyl-2-carboxamide [Example 15]
percent inhibition ([4]; @ 100 µM): 30% @ 100
